Results: the supplement of paper PMC10307832

How the values were obtained:
Assay in all cases: relative viability (nuclei count vs DMSO), 5 days (fraction); higher = more cells survive
EMC-BAC-2 = test system: EMC-BAC-2
Summary of the method: (§1)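 Each reported value is a median over duplicate plates. It expresses relative viability: treated-well nuclei count divided by vehicle-well nuclei count. Lung cancer cell lines in 1536-well plates were dosed by pin tool a day after seeding, alone with one drug or with a fixed anchor-drug dose plus five library-drug doses (not always all listed) in √10 steps, and nuclei were counted after 5 days.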

NCI-H1650 = test system: NCI-H1650
Summary of the method: as §1

NCI-H1915 = test system: NCI-H1915
Summary of the method: as §1

NCI-H2347 = test system: NCI-H2347
Summary of the method: as §1

LCLC-97TM1 = test system: LCLC-97TM1
Summary of the method: as §1

H3255 = test system: H3255
Summary of the method: as §1

NCI-H2009 = test system: NCI-H2009
Summary of the method: as §1

NCI-H1993 = test system: NCI-H1993
Summary of the method: as §1

BEN = test system: BEN
Summary of the method: as §1

NCI-H2342 = test system: NCI-H2342
Summary of the method: as §1

NCI-H358 = test system: NCI-H358
Summary of the method: as §1

NCI-H2023 = test system: NCI-H2023
Summary of the method: as §1

NCI-H2085 = test system: NCI-H2085
Summary of the method: as §1

NCI-H727 = test system: NCI-H727
Summary of the method: as §1

SW 1573 = test system: SW 1573
Summary of the method: as §1

HOP-62 = test system: HOP-62
Summary of the method: as §1

NCI-H2126 = test system: NCI-H2126
Summary of the method: as §1

NCI-H322M = test system: NCI-H322M
Summary of the method: as §1

NCI-H661 = test system: NCI-H661
Summary of the method: as §1

PC-14 = test system: PC-14
Summary of the method: as §1

LXF-289 = test system: LXF-289
Summary of the method: as §1

SK-LU-1 = test system: SK-LU-1
Summary of the method: as §1

NCI-H647 = test system: NCI-H647
Summary of the method: as §1

## COc1cc(N2CCC(C(N)=O)CC2)ccc1Nc1nc(N)c(Cl)c(Nc2ccccc2S(=O)(=O)C(C)C)n1 [HG-5-88-01] + Nc1ncn([C@H]2C[C@H](O)[C@@H](CO)O2)c(=O)n1 [Decitabine] (partner 2 µM)
EMC-BAC-2; first compound 0.04 µM
  relative viability: 1
EMC-BAC-2; first compound 0.1265 µM
  relative viability: 1.07
EMC-BAC-2; first compound 0.4 µM
  relative viability: 0.965
EMC-BAC-2; first compound 1.265 µM
  relative viability: 0.874
EMC-BAC-2; first compound 4 µM
  relative viability: 0.802
NCI-H1650; first compound 0.04 µM
  relative viability: 0.378
NCI-H1650; first compound 0.1265 µM
  relative viability: 0.559
NCI-H1650; first compound 0.4 µM
  relative viability: 0.527
NCI-H1650; first compound 1.265 µM
  relative viability: 0.559
NCI-H1650; first compound 4 µM
  relative viability: 0.413
NCI-H1915; first compound 0.04 µM
  relative viability: 0.254
NCI-H1915; first compound 0.1265 µM
  relative viability: 0.279
NCI-H1915; first compound 0.4 µM
  relative viability: 0.275
NCI-H1915; first compound 1.265 µM
  relative viability: 0.248
NCI-H1915; first compound 4 µM
  relative viability: 0.254
NCI-H2347; first compound 0.04 µM
  relative viability: 0.632
NCI-H2347; first compound 0.1265 µM
  relative viability: 0.637
NCI-H2347; first compound 0.4 µM
  relative viability: 0.729
NCI-H2347; first compound 1.265 µM
  relative viability: 0.672
NCI-H2347; first compound 4 µM
  relative viability: 0.645
LCLC-97TM1; first compound 0.04 µM
  relative viability: 0.21
LCLC-97TM1; first compound 0.1265 µM
  relative viability: 0.219
LCLC-97TM1; first compound 0.4 µM
  relative viability: 0.209
LCLC-97TM1; first compound 1.265 µM
  relative viability: 0.229
LCLC-97TM1; first compound 4 µM
  relative viability: 0.128
H3255; first compound 0.04 µM
  relative viability: 0.589
H3255; first compound 0.1265 µM
  relative viability: 0.629
H3255; first compound 0.4 µM
  relative viability: 0.568
H3255; first compound 4 µM
  relative viability: 0.574
NCI-H2009; first compound 0.04 µM
  relative viability: 0.355
NCI-H2009; first compound 0.1265 µM
  relative viability: 0.384
NCI-H2009; first compound 0.4 µM
  relative viability: 0.338
NCI-H2009; first compound 1.265 µM
  relative viability: 0.314
NCI-H2009; first compound 4 µM
  relative viability: 0.377
NCI-H1993; first compound 0.04 µM
  relative viability: 0.583
NCI-H1993; first compound 0.1265 µM
  relative viability: 0.709
NCI-H1993; first compound 0.4 µM
  relative viability: 0.586
NCI-H1993; first compound 4 µM
  relative viability: 0.545
BEN; first compound 0.04 µM
  relative viability: 0.532
BEN; first compound 0.1265 µM
  relative viability: 0.738
BEN; first compound 0.4 µM
  relative viability: 0.77
BEN; first compound 1.265 µM
  relative viability: 0.725
BEN; first compound 4 µM
  relative viability: 0.545
NCI-H2342; first compound 0.04 µM
  relative viability: 0.751
NCI-H2342; first compound 0.1265 µM
  relative viability: 0.808
NCI-H2342; first compound 0.4 µM
  relative viability: 0.808
NCI-H2342; first compound 4 µM
  relative viability: 0.801
NCI-H358; first compound 0.04 µM
  relative viability: 0.208
NCI-H358; first compound 0.1265 µM
  relative viability: 0.229
NCI-H358; first compound 0.4 µM
  relative viability: 0.285
NCI-H358; first compound 1.265 µM
  relative viability: 0.192
NCI-H358; first compound 4 µM
  relative viability: 0.125
NCI-H2023; first compound 0.04 µM
  relative viability: 0.223
NCI-H2023; first compound 0.1265 µM
  relative viability: 0.244
NCI-H2023; first compound 0.4 µM
  relative viability: 0.229
NCI-H2023; first compound 1.265 µM
  relative viability: 0.236
NCI-H2023; first compound 4 µM
  relative viability: 0.256
NCI-H2085; first compound 0.04 µM
  relative viability: 0.6
NCI-H2085; first compound 0.1265 µM
  relative viability: 0.625
NCI-H2085; first compound 0.4 µM
  relative viability: 0.582
NCI-H2085; first compound 1.265 µM
  relative viability: 0.544
NCI-H2085; first compound 4 µM
  relative viability: 0.607
NCI-H727; first compound 0.04 µM
  relative viability: 0.913
NCI-H727; first compound 0.1265 µM
  relative viability: 0.789
NCI-H727; first compound 0.4 µM
  relative viability: 0.837
NCI-H727; first compound 4 µM
  relative viability: 0.672
SW 1573; first compound 0.04 µM
  relative viability: 0.454
SW 1573; first compound 0.1265 µM
  relative viability: 0.593
SW 1573; first compound 0.4 µM
  relative viability: 0.423
SW 1573; first compound 1.265 µM
  relative viability: 0.428
SW 1573; first compound 4 µM
  relative viability: 0.458
HOP-62; first compound 0.04 µM
  relative viability: 0.209
HOP-62; first compound 0.1265 µM
  relative viability: 0.226
HOP-62; first compound 0.4 µM
  relative viability: 0.232
HOP-62; first compound 1.265 µM
  relative viability: 0.252
HOP-62; first compound 4 µM
  relative viability: 0.28
NCI-H2126; first compound 0.04 µM
  relative viability: 0.603
NCI-H2126; first compound 0.1265 µM
  relative viability: 0.586
NCI-H2126; first compound 0.4 µM
  relative viability: 0.568
NCI-H2126; first compound 1.265 µM
  relative viability: 0.6
NCI-H2126; first compound 4 µM
  relative viability: 0.556
NCI-H322M; first compound 0.04 µM
  relative viability: 0.693
NCI-H322M; first compound 0.1265 µM
  relative viability: 0.68
NCI-H322M; first compound 0.4 µM
  relative viability: 0.781
NCI-H322M; first compound 1.265 µM
  relative viability: 0.483
NCI-H322M; first compound 4 µM
  relative viability: 0.706
NCI-H661; first compound 0.04 µM
  relative viability: 0.54
NCI-H661; first compound 0.1265 µM
  relative viability: 0.595
NCI-H661; first compound 0.4 µM
  relative viability: 0.653
NCI-H661; first compound 1.265 µM
  relative viability: 0.515
NCI-H661; first compound 4 µM
  relative viability: 0.56
PC-14; first compound 0.04 µM
  relative viability: 0.215
PC-14; first compound 0.1265 µM
  relative viability: 0.231
PC-14; first compound 0.4 µM
  relative viability: 0.235
PC-14; first compound 1.265 µM
  relative viability: 0.206
PC-14; first compound 4 µM
  relative viability: 0.0628
LXF-289; first compound 0.04 µM
  relative viability: 0.324
LXF-289; first compound 0.1265 µM
  relative viability: 0.402
LXF-289; first compound 0.4 µM
  relative viability: 0.464
LXF-289; first compound 1.265 µM
  relative viability: 0.423
LXF-289; first compound 4 µM
  relative viability: 0.427
SK-LU-1; first compound 0.04 µM
  relative viability: 0.525
SK-LU-1; first compound 0.1265 µM
  relative viability: 0.595
SK-LU-1; first compound 0.4 µM
  relative viability: 0.598
SK-LU-1; first compound 1.265 µM
  relative viability: 0.598
SK-LU-1; first compound 4 µM
  relative viability: 0.344
NCI-H647; first compound 0.04 µM
  relative viability: 0.375
NCI-H647; first compound 0.1265 µM
  relative viability: 0.494
NCI-H647; first compound 1.265 µM
  relative viability: 0.529
NCI-H647; first compound 4 µM
  relative viability: 0.679
